Test results taken from US20090028804A1, “AhR mediators” (SYMRISE GmbH & Co. KG, priority 2005, published 2009).
Where two headings read alike, the source gives them in different places.

Tests used:
[1] = system: primary mouse melanocytes; test: Melanin content of primary mouse melanocytes, photometric at 405 nm; type: cell-based
Description: The cells were removed, lysed with 0.1% Triton-X100, centrifuged and the melanin content from the lysate pellet was determined photometrically in an ELISA reader at 405 nm after cell disruption with 1M NH4OH (4 h, 85° C.). The blank reading, which contained only NH4OH, was subtracted from the absorption value. In parallel, the protein content of the lysate supernatants was determined by the Bradford method.
Semiconfluent primary mouse melanocytes (culture conditions as above) were further cultured for 7 days with 10 μM MNF. The cells were removed, lysed with 0.1% Triton-X100, centrifuged and the melanin content from the lysate pellet was determined photometrically in an ELISA reader at 405 nm after cell disruption with 1M NH4OH (4 h, 85° C.). The blank reading, which contained only NH4OH, was subtracted from the absorption value.

AhR [2] = target: T1, AhR (Homo sapiens, UniProt P35869); test: AhR translocation into the cell nucleus in HaCaT cells transfected with pEGFP-AhR plasmid; type: cell-based; parameters: host or cells: oral human keratinocyte cancer cells
T1 sequence (P35869 11-848): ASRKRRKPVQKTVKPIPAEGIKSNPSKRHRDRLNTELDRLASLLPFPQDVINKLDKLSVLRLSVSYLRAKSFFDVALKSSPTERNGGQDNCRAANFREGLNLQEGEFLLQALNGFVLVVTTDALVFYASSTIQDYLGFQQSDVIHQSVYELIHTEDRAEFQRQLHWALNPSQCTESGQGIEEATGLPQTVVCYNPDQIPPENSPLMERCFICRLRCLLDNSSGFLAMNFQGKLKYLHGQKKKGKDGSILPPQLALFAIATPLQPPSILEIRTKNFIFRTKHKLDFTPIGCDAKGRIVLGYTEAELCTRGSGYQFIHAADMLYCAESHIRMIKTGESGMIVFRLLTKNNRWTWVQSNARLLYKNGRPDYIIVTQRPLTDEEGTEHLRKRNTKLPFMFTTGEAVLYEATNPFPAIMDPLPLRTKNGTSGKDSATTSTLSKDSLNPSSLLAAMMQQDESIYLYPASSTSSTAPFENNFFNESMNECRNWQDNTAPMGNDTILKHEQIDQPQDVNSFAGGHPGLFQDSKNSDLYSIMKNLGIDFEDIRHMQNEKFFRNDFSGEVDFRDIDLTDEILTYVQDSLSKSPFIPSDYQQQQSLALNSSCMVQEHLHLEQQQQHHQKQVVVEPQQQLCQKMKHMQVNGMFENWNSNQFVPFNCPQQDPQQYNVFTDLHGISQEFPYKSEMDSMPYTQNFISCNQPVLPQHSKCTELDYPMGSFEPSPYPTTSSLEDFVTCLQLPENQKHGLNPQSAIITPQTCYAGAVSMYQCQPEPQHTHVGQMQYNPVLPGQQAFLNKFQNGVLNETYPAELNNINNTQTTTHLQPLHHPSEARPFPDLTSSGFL
Description: (§1) HaCaT keratinocytes were cultured in DMEM medium with 10% fetal calf serum. The cells were irradiated with UVB radiation in PBS (phosphate-buffered saline). For UVB irradiation, we used a TL20W/12RS lamp which contains four parallel tubes (Philips, Eindhoven, Netherlands) and emits the majority of its energy in the UVB range (290-320 nm). The emission peak of the lamp is at 310 nm. Control cells were subjected to identical treatment, but were not irradiated. In order to inhibit the AhR, the cells were treated with the test substance 1 h before irradiation.
HaCaT cells were plated out onto chambered microscope slides with a cell density of 5×10^4 cells/chamber. Some were pretreated with the test substance for 1 h. After 24 h, said cells were transfected with the pEGFP-AhR plasmid by means of the FuGene 6 transfection reagent (Roche, Mannheim, Germany) in accordance with the manufacturer's instructions After a further 24 h, transfected cells were irradiated with […] of UVB. After 40 min, the cells were fixed for 10 min with 4% paraformaldehyde and washed with PBS. The microscope slides were dried and mounted with Vectashield Mounting Medium (Vector Laboratories, Burlingame, Calif., USA). The AhR coupled to the GFP was visualized by means of a fluorescence microscope (Olympus, Hamburg, Germany) and photographed with a ColorViewXS digital camera (Olympus).

AhR [3] = target: T1, AhR; test: AhR translocation in primary mouse melanocytes transfected with pEGFP-AhR plasmid; type: cell-based; parameters: expressed in transfected cells; host or cells: primary mouse melanocytes; settings: in the presence and absence of benzo[a]pyrene
Description: Primary mouse melanocyte cells were plated out onto chambered microscope slides. Individual chambers were treated for 1 h with the test substances. After 24 h, the cells were transfected with the pEGFP-AhR plasmid. After a further 40 min, the cells were fixed. The microscope slides were evaluated by fluorescence microscopy. Translocation of the AhR, which is coupled to the GFP and thus fluoresces green, from the cytoplasm into the cell nucleus is visible.

AhR [4] = target: T1, AhR; parameters: host or cells: oral human keratinocyte cancer cells; settings: cited from earlier work
[5] = Photostability on irradiation with UVB radiation; type: physicochemical; settings: photostable = no more than 10 mol % converted on UVB (40 W/m^2) for 2 hours
Description: For the purposes of the present invention, a photostable substance is one which, on irradiation with UVB radiation (40 W/m^2) for 2 hours, is no more than 10 mol % converted into one or more other substances. All-trans-retinoic acid, for example, is accordingly not a preferred AhR antagonist, as this substance is photolabile.

MMP-1 = settings: cited from earlier work
AhR [6] = target: T1, AhR; settings: human breast cancer cell line MCF-7; cited from earlier work
AhR [7] = target: T1, AhR; settings: human liver cancer cell line HepG2; cited from earlier work
AhR [8] = target: T1, AhR; settings: human breast epithelium cells; cited from earlier work
CYP1A1 = test: UVB-induced CYP1A1 induction in HaCaT keratinocytes, real time RT-PCR; type: cell-based, human
Description: as §1
HaCaT cells were irradiated with 100 J/m^2 of UVB. Some cells were pretreated with the test substance 1 h before irradiation. After 4 h, the RNA was prepared using the RNeasy kit (Qiagen, Hilden, Germany) in accordance with the manufacturer's instructions. Reverse transcription was carried out as described (Arch. Toxicol (2005) PMID 16205913). PCR fragments were amplified by means of real-time PCR in a LightCycler (Roche, Mannheim, Germany). The PCR mix was made up of 1/10 volume of QuantiTec® SYBR Green PCR Master Mixes F (Qiagen, Hilden, Germany), 0.5 μM of the particular primer, 2 μl of cDNA and DEPC-treated (diethyl pyrocarbonate-treated) H2O in a final volume of 20 μl. […] PCR conditions were as follows: 40 cycles of 15 sec 94° C. for denaturation, 25 sec 60° C. for primer attachment, 30 sec 72° C. for extension and 2 sec 72° C. for fluorescence measurement. […] The PCR products were quantified by means of a fragment-specific standard curve and analysis with LightCycler Software 3. […]
HaCaT cells were irradiated with 100 J/m^2 of UVB. […] The PCR mix was made up of 1/10 volume of QuantiTect® SYBR Green PCR Master Mixes (Qiagen, Hilden, Germany), 0.5 μM of the particular primer, 2 μl of cDNA and DEPC-treated (diethyl pyrocarbonate-treated) H2O in a final volume of 20 μl. […] PCR conditions were as follows: 40 cycles of 15 sec 94° C. for denaturation, 25 sec 60° C. for primer attachment, 30 sec 72° C. for extension and 2 sec 72° C. for fluorescence measurement. […]

[9] = in the absence of UVB radiation

COc1cc(-c2cc(=O)c3ccccc3o2)ccc1[N+](=O)[O-] [3-methoxy-4-nitroflavone]
melanin content versus untreated cells ([1]; 10 μM, 7 days, p<0.05 (FIG. 4)): significantly less melanin
AhR translocation into the cell nucleus (AhR [2]; HaCaT, in the presence and absence of UVB light): inhibited AhR translocation
AhR translocation into the cell nucleus (AhR [3]): inhibited AhR translocation

O=Cc1c2[nH]c3ccccc3c2cc2[nH]c3ccccc3c12 [FICZ, formylindolo(3,2b)carbazole]
melanin content versus untreated cells ([1]; 2 days with UVB-irradiated 50 mM tryptophan solution containing FICZ, p<0.05 (FIG. 3)): significantly more melanin
AhR translocation into the cell nucleus (AhR [3]): stimulated AhR translocation

CC1=C(/C=C/C(C)=C/C=C/C(C)=C/C(=O)O)C(C)(C)CCC1 [All-trans-retinoic acid]
AhR activity (AhR [4]; in the absence of TCDD): without influencing AhR activity
TCDD-induced AhR activation (AhR [4]; normal human keratinocytes): inhibits TCDD-induced AhR activation
photostability [5]: photolabile
TCDD-induced expression of MMP-1 (MMP-1): enhancing TCDD-induced expression of MMP-1

O=c1cc(-c2ccc(O)c(O)c2)oc2cc(O)cc(O)c12 [luteolin]
action of AhR (AhR [6]): has no effect
action of AhR (AhR [7]): acts as an AhR inhibitor

O=C1c2ccccc2-c2n[nH]c3cccc1c23 [anthra[1,9-cd]pyrazol-6(2H)-one]
action of the AhR agonist TCDD (AhR [8]): capable of inhibiting the action

O=c1c(O)c(-c2ccc(O)c(O)c2)oc2cc(O)cc(O)c12 [quercetin]
action of AhR (AhR [6]): prevents the action of AhR
action of AhR (AhR [7]): has no effect

C/C=C/c1cc(OC)c2c(c1)C(C)C(c1ccc(O)c(OC)c1)O2 (stereo not drawn) [Compound (X)]
translocation of AhR from the cytoplasm into the cell nucleus induced by the compound itself (AhR [2]; [9]): do not induce translocation of AhR
CYP1A1 inhibition in the presence of UVB light (CYP1A1; 0.0001 wt. %, HaCaT, 100 J/m^2 UVB, relative to control (PBS without test substances with 0.1% DMSO, UVB-irradiated)): 20%
induction of CYP1A1 as a result of AhR activation in the presence of UVB light (CYP1A1; HaCaT, UVB light): inhibited induction of CYP1A1
induction of an AhR-inducible gene, in particular CYP1A1, by the compound itself (CYP1A1; [9]): does not itself bring about induction
